Legend:
[1] = test system: wheat; experiment: Test B pre/postemergence wheat; format: in vivo, Triticum aestivum
In short: (§1)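 Herbicidal effect was estimated by eye on a ten-point control scale after plants spent twelve to sixteen days in a greenhouse following soil or foliar treatment. Foliar sprays targeted plants at one to four leaves; all doses were formulated in a non-phytotoxic solvent with surfactant.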

[2] = test system: cocklebur; experiment: Test B pre/postemergence cocklebur; format: in vivo, Xanthium strumarium
In short: as §1

[3] = test system: corn; experiment: Test B pre/postemergence corn; format: in vivo, Zea mays
In short: as §1

[4] = test system: soybean; experiment: Test B pre/postemergence soybean; format: in vivo, Glycine max
In short: as §1

[5] = test system: sugar beet; experiment: Test B pre/postemergence sugar beet; format: in vivo, Beta vulgaris
In short: as §1

[6] = test system: velvetleaf; experiment: Test B pre/postemergence velvetleaf; format: in vivo, Abutilon theophrasti
In short: as §1

[7] = test system: purple nutsedge; experiment: Test B pre/postemergence purple nutsedge; format: in vivo, Cyperus rotundus
In short: as §1

[8] = test system: bamyardgrass; experiment: Test B flood test barnyardgrass; format: in vivo, Echinochloa crus-galli
In short: (§2)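 Each value is a visual injury score relative to controls, with 10 meaning complete control and 0 no effect. Evaluation took place twelve to sixteen days after the 2-leaf-stage plants were treated and kept in the greenhouse.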

[9] = test system: blackgrass; experiment: Test B pre/postemergence blackgrass; format: in vivo, Alopecurus myosuroides
In short: as §1

[10] = test system: surinam grass; experiment: Test B pre/postemergence surinam grass; format: in vivo, Brachiaria decumbens
In short: as §1

[11] = test system: wild oat; experiment: Test B pre/postemergence wild oat; format: in vivo, Avena fatua
In short: as §1

[12] = test system: rice; experiment: Test B flood test rice; format: in vivo, Oryza sativa
In short: as §2

[13] = test system: crabgrass; experiment: Test B pre/postemergence crabgrass; format: in vivo, Digitaria sanguinalis
In short: as §1

[14] = test system: rape; experiment: Test B pre/postemergence rape; format: in vivo, Brassica napus
In short: as §1

[15] = test system: smallflower flatsedge; experiment: Test B flood test smallflower flatsedge; format: in vivo, Cyperus difformis
In short: as §2

[16] = test system: duck salad; experiment: Test B flood test duck salad; format: in vivo, Heteranthera limosa
In short: as §2

[17] = test system: bedstraw; experiment: Test B pre/postemergence bedstraw; format: in vivo, Galium aparine
In short: as §1

[18] = Postemergence, Rate 62 g/ha, scale 0 to 10, 0 is no effect, 10 is complete control
[19] = Postemergence, Rate 250 g/ha, scale 0 to 10, 0 no effect, 10 complete control
[20] = Preemergence, Rate 62 g/ha, scale 0 to 10 (0 no effect, 10 complete control)
[21] = Preemergence, Rate 125 g/ha, scale 0 to 10 (0 no effect, 10 complete control)
[22] = Preemergence, Rate 250 g/ha, scale of 0 to 10 where 0 is no effect and 10 is complete control
[23] = Preemergence, Rate 500 g/ha, scale 0 (no effect) to 10 (complete control)
[24] = Rate 125 g/ha, Postemergence, scale 0 to 10, 0 no effect, 10 complete control
[25] = Rate 500 g/ha, Postemergence, scale 0 to 10, 0 no effect, 10 complete control
[26] = Rate 125 g/ha, Postemergence section (flood test species), scale 0 to 10, 0 no effect, 10 complete control
[27] = Rate 500 g/ha, listed under Postemergence (flood test species), scale 0 to 10, 0 no effect, 10 complete control
[28] = flood test, listed under Postemergence, Rate 250 g/ha, scale 0 to 10, 0 no effect, 10 complete control

SMILES: Cc1nn(C)c(C)c1-n1c(=O)on(C(=O)N(c2ccc(F)cc2)C(C)C)c1=O [Compound 75]
- Wheat plant response rating [1, 18]: 0
- Wheat plant response rating [1, 19]: 2
- Wheat plant response rating [1, 20]: 0
- Plant response rating, Wheat [1, 21]: 0
- Plant response rating, Wheat [1, 22]: 0
- Wheat plant response rating [1, 23]: 3
- Wheat plant response rating [1, 24]: 0
- Wheat plant response rating [1, 25]: 4
- Cocklebur plant response rating [2, 18]: 0
- Cocklebur plant response rating [2, 19]: 1
- Cocklebur plant response rating [2, 20]: 0
- Plant response rating, Cocklebur [2, 21]: 0
- Plant response rating, Cocklebur [2, 22]: 0
- Cocklebur plant response rating [2, 23]: 0
- Cocklebur plant response rating [2, 24]: 0
- Cocklebur plant response rating [2, 25]: 1
- Corn plant response rating [3, 18]: 0
- Corn plant response rating [3, 19]: 0
- Corn plant response rating [3, 20]: 0
- Plant response rating, Corn [3, 21]: 0
- Plant response rating, Corn [3, 22]: 0
- Corn plant response rating [3, 23]: 0
- Corn plant response rating [3, 24]: 0
- Corn plant response rating [3, 25]: 0
- Soybean plant response rating [4, 18]: 1
- Soybean plant response rating [4, 19]: 2
- Soybean plant response rating [4, 20]: 0
- Plant response rating, Soybean [4, 21]: 0
- Plant response rating, Soybean [4, 22]: 0
- Soybean plant response rating [4, 23]: 0
- Soybean plant response rating [4, 24]: 1
- Soybean plant response rating [4, 25]: 2
- Sugarbeets plant response rating [5, 18]: 0
- Sugarbeets plant response rating [5, 19]: 0
- Sugarbeets plant response rating [5, 20]: 0
- Plant response rating, Sugarbeets [5, 21]: 0
- Plant response rating, Sugarbeets [5, 22]: 0
- Sugarbeets plant response rating [5, 23]: 4
- Sugarbeets plant response rating [5, 24]: 0
- Sugarbeets plant response rating [5, 25]: 0
- Velvetleaf plant response rating [6, 18]: 0
- Velvetleaf plant response rating [6, 19]: 0
- Velvetleaf plant response rating [6, 20]: 0
- Plant response rating, Velvetleaf [6, 21]: 0
- Plant response rating, Velvetleaf [6, 22]: 0
- Velvetleaf plant response rating [6, 23]: 0
- Velvetleaf plant response rating [6, 24]: 0
- Velvetleaf plant response rating [6, 25]: 0
- Nutsedge plant response rating [7, 18]: 0
- Nutsedge plant response rating [7, 19]: 0
- Nutsedge plant response rating [7, 20]: 0
- Plant response rating, Nutsedge [7, 21]: 0
- Plant response rating, Nutsedge [7, 22]: 0
- Nutsedge plant response rating [7, 23]: 0
- Nutsedge plant response rating [7, 24]: 0
- Nutsedge plant response rating [7, 25]: 0
- Barnyardgrass plant response rating [8, 18]: 0
- Barnyardgrass plant response rating [8, 26]: 0
- Barnyardgrass plant response rating [8, 27]: 0
- Barnyardgrass plant response rating [8, 28]: 0
- Blackgrass plant response rating [9, 18]: 3
- Blackgrass plant response rating [9, 19]: 7
- Blackgrass plant response rating [9, 20]: 0
- Plant response rating, Blackgrass [9, 21]: 1
- Plant response rating, Blackgrass [9, 22]: 7
- Blackgrass plant response rating [9, 23]: 9
- Blackgrass plant response rating [9, 24]: 5
- Blackgrass plant response rating [9, 25]: 9
- B. signalgrass plant response rating [10, 18]: 2
- B. signalgrass plant response rating [10, 19]: 6
- B. signalgrass plant response rating [10, 20]: 0
- Plant response rating, B. signalgrass [10, 21]: 1
- Plant response rating, B. signalgrass [10, 22]: 2
- B. signalgrass plant response rating [10, 23]: 8
- B. signalgrass plant response rating [10, 24]: 3
- B. signalgrass plant response rating ([10]; Rate 500 g/ha, Postemergence, scale of 0 to 10 where 0 is no effect and 10 is complete control): 8
- Wild oats plant response rating [11, 18]: 0
- Wild oats plant response rating [11, 19]: 0
- Wild oats plant response rating [11, 20]: 0
- Plant response rating, Wild oats [11, 21]: 0
- Plant response rating, Wild oats [11, 22]: 8
- Wild oats plant response rating [11, 23]: 8
- Wild oats plant response rating [11, 24]: 0
- Wild oats plant response rating [11, 25]: 2
- Rice plant response rating [12, 18]: 2
- Rice plant response rating [12, 26]: 2
- Rice plant response rating [12, 27]: 2
- Rice plant response rating [12, 28]: 2
- Crabgrass plant response rating [13, 18]: 0
- Crabgrass plant response rating [13, 19]: 9
- Crabgrass plant response rating [13, 20]: 3
- Plant response rating, Crabgrass [13, 21]: 8
- Plant response rating, Crabgrass [13, 22]: 10
- Crabgrass plant response rating [13, 23]: 10
- Crabgrass plant response rating [13, 24]: 2
- Crabgrass plant response rating [13, 25]: 9
- Rape plant response rating [14, 18]: 0
- Rape plant response rating [14, 19]: 0
- Rape plant response rating [14, 20]: 0
- Plant response rating, Rape [14, 21]: 0
- Plant response rating, Rape [14, 22]: 0
- Rape plant response rating [14, 23]: 10
- Rape plant response rating [14, 24]: 0
- Rape plant response rating [14, 25]: 0
- S. Flatsedge plant response rating [15, 18]: 0
- S. Flatsedge plant response rating [15, 26]: 0
- S. Flatsedge plant response rating [15, 27]: 0
- S. Flatsedge plant response rating [15, 28]: 0
- Ducksalad plant response rating [16, 18]: 0
- Ducksalad plant response rating [16, 26]: 0
- Ducksalad plant response rating [16, 27]: 0
- Ducksalad plant response rating [16, 28]: 0
- Bedstraw plant response rating [17, 18]: 0
- Bedstraw plant response rating [17, 19]: 0
- Bedstraw plant response rating [17, 20]: 0
- Plant response rating, Bedstraw [17, 21]: 0
- Plant response rating, Bedstraw [17, 22]: 0
- Bedstraw plant response rating [17, 23]: 0
- Bedstraw plant response rating [17, 24]: 0
- Bedstraw plant response rating [17, 25]: 0
